Results reported in BindingDB's records for doi:10.7270/Q2VH5M8G (Nmmlsc, 2010).

Target: T1, Regulator of G-protein signaling 16 (Homo sapiens, UniProt O15492)
T1 sequence (O15492 whole entry): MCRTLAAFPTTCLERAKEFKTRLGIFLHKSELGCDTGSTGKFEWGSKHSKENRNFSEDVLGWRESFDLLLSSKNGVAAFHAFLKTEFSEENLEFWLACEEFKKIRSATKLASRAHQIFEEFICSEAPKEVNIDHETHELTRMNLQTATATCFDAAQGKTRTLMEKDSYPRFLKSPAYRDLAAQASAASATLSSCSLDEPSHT
Test: RGS16-Galphao binding modulators, SAR follow-up, biochemical, multiplexed bead flow cytometry, SAR compounds (AID 2298)

EC50 [nM]	EC50 (inactive by the depositor's call) [nM]	Compound
> 30000		Nc1c(C(=O)NCC2CCCO2)sc2nc3c(c(-c4ccco4)c12)CC/C3=C/c1ccco1 (configuration not stated) [UNM-0000305796]
53		Cc1cc(Cl)ccc1/N=c1/ssnc1Cl [MLS000539990]
272		CC(=O)OCCCNc1cc(Sc2nc3ccccc3s2)c2nonc2c1[N+](=O)[O-] [MLS000521052]
121		O=C1C(Cl)=C(N2CCCCC2)C(=O)C(Cl)=C1c1cnc(N2CCCCC2)s1 [MLS000550549]
151		COc1ccc(C2=CC(=O)C=CC2=O)cc1 [MLS001029846]
822		O=C(Cc1csc(N2CCOCC2)n1)NN=Cc1ccc(O)c(O)c1O [SMR000369439]
3510		CC1(C)OC(=O)C(=Cc2ccc(-c3ccc(S(N)(=O)=O)cc3)o2)C(=O)O1 [SMR000273939]
5220		CCC(=O)NC(c1ccc(C)cc1)c1cc([N+](=O)[O-])c2cccnc2c1O (configuration not stated) [MLS000553854]
	3680	CCOc1ccccc1-c1c2cc(O)c(=O)cc-2oc2cc(O)c(O)cc12 [MLS000578271]

The remaining lines, values behind:

Compound	EC50 [nM]	EC50 (inactive by the depositor's call) [nM]
O=c1c2ccccc2sn1-c1ccc(S(=O)(=O)N2CCCC2)cc1 [2-(4-pyrrolidin-1-ylsulfonylphenyl)-1,2-benzothiazol-3-one]	27	
CCN(CC)S(=O)(=O)c1cccc(-c2n[nH]c(=S)n2N=Cc2ccc(C(=O)OC)cc2)c1 [4-[(E)-[3-[3-(diethylsulfamoyl)phenyl]-5-thioxo-1H-1,2,4-triazol-4-yl]iminomethyl]benzoic acid methyl ester]	940	
CCN(CC)S(=O)(=O)c1cccc(C(=O)NN=Cc2ccc(O)c(O)c2O)c1	590	
CCN=c1scc(C)n1N=Cc1ccc(O)c(O)c1O	1050	
Cc1[nH]n(-c2ccccc2)c(=S)c1C=NCCCN=Cc1c(C)[nH]n(-c2ccccc2)c1=S	405	
Cc1cccc(N2CCN(C(=O)CN3CCc4nc(C)cc(C)c4C3=O)CC2C)c1 (configuration not stated) [KUC103675N]	> 30000	
Cc1cccc(N2CCN(C(=O)Cn3ccc4nc(C)cc(C)c4c3=O)CC2C)c1 (configuration not stated) [2,4-dimethyl-6-[2-[3-methyl-4-(3-methylphenyl)piperazin-1-yl]-2-oxidanylidene-ethyl]-1,6-naphthyridin-5-one]	> 30000	
Cc1cc(C)c2c(=O)n(CC(=O)N3CCN(c4ccccc4)CC3)ccc2n1 [2,4-dimethyl-6-[2-oxidanylidene-2-(4-phenylpiperazin-1-yl)ethyl]-1,6-naphthyridin-5-one]	18	
O=c1c2ccccc2sn1-c1ccccc1 [2-phenyl-1,2-benzothiazol-3-one]	> 30000	
Cc1cccc(N2CCN(C(=O)COc3nsc4nc(C)cc(C)c34)CC2C)c1 (configuration not stated)	1430	
Cc1cccc(N2CCN(C(=O)COc3noc4nc(C)cc(C)c34)CC2C)c1 (configuration not stated) [2-[(4,6-dimethyl-[1,2]oxazolo[5,4-b]pyridin-3-yl)oxy]-1-[3-methyl-4-(3-methylphenyl)piperazin-1-yl]ethanone]	> 30000	
Cc1[nH]n(-c2ccccc2)c(=S)c1/C=N/c1cccc([N+](=O)[O-])c1 [(4E)-5-methyl-4-[(3-nitroanilino)methylene]-2-phenyl-2-pyrazoline-3-thione]	46	
O=C(COc1ccccc1C(=O)NN=Cc1ccc(O)c(O)c1)NN=Cc1ccc(O)c(O)c1 [N''-[(Z)-(3-hydroxy-4-oxo-1-cyclohexa-2,5-dienylidene)methyl]-2-[2-[[(Z)-(3-hydroxy-4-oxo-1-cyclohexa-2,5-dienylidene)methyl]hydrazo]-2-oxoethoxy]benzohydrazide]	116	
CN=c1scc(C)n1N=Cc1ccc(O)c(O)c1O [(4E)-2,3-dihydroxy-4-[[(4-methyl-2-methylimino-1,3-thiazol-3-yl)amino]methylidene]cyclohexa-2,5-dien-1-one]	511	
Cc1cc(C)c2c(n1)CCN(CC(=O)N1CCN(c3ccccc3)CC1)C2=O [2,4-dimethyl-6-[2-oxidanylidene-2-(4-phenylpiperazin-1-yl)ethyl]-7,8-dihydro-1,6-naphthyridin-5-one]	> 30000	
Cc1cccc(N2CCN(C(=O)Cn3sc4nc(C)cc(C)c4c3=O)CC2C)c1 (configuration not stated) [2-[2-keto-2-[3-methyl-4-(m-tolyl)piperazino]ethyl]-4,6-dimethyl-isothiazolo[5,4-b]pyridin-3-one]	110	
CN1CCN(C2=C(Cl)C(=O)C(c3cnc(N4CCCCC4)s3)=C(Cl)C2=O)CC1	27	
NS(=O)(=O)c1ccc(N=NCc2ccc(O)c(O)c2O)c([N+](=O)[O-])c1 [4-[[(E)-(2,3-dihydroxy-4-oxo-1-cyclohexa-2,5-dienylidene)methyl]hydrazo]-3-nitrobenzenesulfonamide]	29	
